In patent publication US20140235601A1, “Use of Aromatase Inhibitor Or Estrogen Blocker For Increasing Spermatogenesis Or Testosterone Levels In Males” (priority 2011, published 2014):

What was measured:
Format in all cases: in vivo, human
[1] = system: married person with small very atrophic testicles; experiment: Clinical Example A: person with history of undescended testicles, impotence and infertility treated with Arimidex; conditions: ⅛ mg (0.125 mg) daily
Excerpt: A married person with a history of undescended testicles that were surgically corrected […]. This person presented to the inventor with small very atrophic testicles, impotence (difficulty in erecting, only occasionally able to have successful intercourse only with PDE5 inhibitors) and an inability to conceive despite two years of unprotected sexual intercourse with their spouse.
All of this is a result of the improved testicular function that this relatively low dose of Arimidex provided for this patient.

[2] = system: person with testicular atrophy following pelvic radiation; experiment: Clinical Example C: person with testicular decline after pelvic radiation for prostate cancer treated with Letrazole; conditions: 1/40th of a 2.5 mg tablet daily
Excerpt: A sexually active person with biopsy confirmed prostate cancer elects to treat their cancer with pelvic radiation. Following radiation there is a progressive decline in testosterone levels, combined with testicular atrophy and increasing erectile dysfunction.

[3] = system: person with extremely small and atrophic testicles; experiment: Clinical Example B: person with low libido, erectile dysfunction and ejaculatory failure treated with Femara; conditions: ⅛ to ½ of a 2.5 mg tablet
Protocol: A […] athletic and muscular […] complaining of low libido, erectile dysfunction and ejaculatory failure. Patient was needing to use Viagra in order to function sexually, and had no desire for sex. Sex hormones testosterone and estrogen were measured at prepubertal levels.

SMILES	erectile function [1]	fertility (ability to conceive) [1]	sperm counts [1]	testicular function [1]	testosterone levels [1]	testicular function [2]	testosterone levels [2]	ejaculations during intercourse [3]	erections [3]	sex drive [3]	testicular function [3]	testosterone levels [3]
CC(C)(C#N)c1cc(Cn2cncn2)cc(C(C)(C)C#N)c1 [Arimidex, Anastrozole]	dramatic improvement	able to conceive and have a child	dramatic increase	improved	significant increase	–	–	–	–	–	–	–
N#Cc1ccc(C(c2ccc(C#N)cc2)n2cncn2)cc1 [Femara, Letrozole]	–	–	–	–	–	significant improvement	dramatic rise	restoration	improved	restoration	dramatic increase	restored to the high supraphysiologic levels
